US20130053430A1, “MODULATION OF CETP EXPRESSION” (Isis Pharmaceuticals, Inc., priority 2010, published 2013)
e = 2'-O-(2-methoxyethyl) (MOE); d = 2'-deoxy (DNA)

Tests used:
[1] = Liver function, plasma ALT and AST (Example 6); assay type: in vivo, mice; settings: 50 mg/kg s.c. twice per week
Description: The normal chow-fed mice were divided into three treatment groups. The cholesterol-enriched chow-fed mice were divided into three treatment groups. […] One chow-fed group and one cholesterol-enriched chow-fed group received subcutaneous injections of saline twice weekly for 6 weeks. The saline-injected groups served as the control groups to which the corresponding oligonucleotide-treated groups were compared.
Plasma concentrations of ALT (alanine transaminase) and AST (aspartate transaminase) at weeks 0, 3 and 6 were measured and the results are presented in Tables 18 and 19 expressed in IU/L.

CETP mRNA = assay: Liver CETP mRNA in huCETP transgenic mice on Western diet (Example 8); assay type: in vivo, human; settings: 25 mg/kg s.c. twice per week for 2 weeks, relative to PBS control
Procedure: (§1) Male transgenic mice were maintained on a 12-hour light/dark cycle and were fed ad libitum the Western diet (TD88137; 42% cal from fat, 0.2% cholesterol; Harlan Laboratories, Indianapolis, Ind.). Animals were acclimated for at least 7 days in the research facility before initiation of the experiment and were maintained on this diet throughout the study period. Antisense oligonucleotides (ASOs) were prepared in phosphate buffered saline (PBS) and sterilized by filtering through a 0.2 micron filter. Oligonucleotides were dissolved in 0.9% PBS for injection.
The mice were divided into two groups of 4-6 mice each.
Twenty four hours after the final dose, the animals were sacrificed and liver tissue was isolated.
Liver RNA was isolated for real-time PCR analysis of CETP. The primer probe set hCETP was used to measure CETP levels. […] The RNA expression levels were normalized to murine Cyclophilin. The results are expressed as percent inhibition of CETP mRNA, relative to the PBS control.

[2] = Effect on HDL composition in huCETP transgenic LDL receptor knockout mice (Example 10); assay type: in vivo; settings: HDL fraction; for FC % (free cholesterol component of HDL) / PL % (phospholipid component of HDL) / Pro % (protein component of HDL) / TG % (triglyceride component of HDL) / CE % (cholesteryl ester component of HDL): CETP transgenic LDLr−/− mouse model; for CE % (cholesteryl ester component of HDL): calculated as (total cholesterol−free cholesterol)×1.67; for S/C Ratio: surface components (Pro, FC, PL) to core components (CE, TG)
Description: In human CETP transgenic mice, the bulk of the cholesterol in plasma is associated with HDL and, in this model, cholesteryl ester (CE) transferred from HDL to VLDL/LDL by CETP is rapidly cleared by the LDL receptor (LDLr) (Zhou, H. et al., Biochim Biophys. Acta. 1761: 14821488, 2006). The human CETP transgenic, LDLr knockout mouse model used in this example is an animal model for cardiovascular disease. In this model, clearance of LDL is delayed due to the absence of LDLr leading to the inability of the mice to clear CE via the LDL pathway (Plump, A. S. et al., Arterioscler. Thromb. Vasc. Biol. 19: 1105-1110, 1999). This human CETP transgenic, LDLr knockout mouse is helpful in assessing the effect of antisense inhibition of CETP on HDL composition as the model has a proatherogenic lipoprotein profile where most of the cholesterol is found in VLDL and LDL.
as §1, with “in” for “in phosphate”
Another group received subcutaneous injections of control oligonucleotide ISIS 141923 at a dose of 15 mg/kg/week for 6 weeks. One group of mice received subcutaneous injections of PBS for 6 weeks. The PBS-injected group served as the control group to which treatment groups were compared.
At the end of the treatment period, plasma samples were taken for further analysis.
The VLDL+IDL, LDL and HDL lipoprotein sub-fractions were separated by ultracentrifugation, based on their relative densities. Pooled plasma samples from all the groups of […] each was added to a 2 mL Beckman Quick-Seal centrifuge tube and the density adjusted to 1.019 g/mL with potassium bromide (KBr). The samples were then spun in a Beckman TL-100 ultracentrifuge for 4 hours at 100,000 rpm at 4 degrees Celsius. The top of the tube containing the VLDL+IDL sub-fraction was sliced off and collected.
The bottom fraction was collected in a new tube; the density was re-adjusted to 1.063 g/ml with KBr and re-spun at 100,000 rpm at 4 degrees Celsius for 5 hours to concentrate the LDL sub-fraction. The top of the tube containing the LDL sub-fraction was collected. Once again, the bottom fraction was placed in a new tube and the density was now adjusted to 1.21 g/ml with KBr to concentrate the HDL sub-fraction. The tubes were spun at 100,000 rpm at 4 degrees Celsius for 6 hours. The HDL sub-fraction was finally collected. All of the lipoprotein sub-fractions were dialyzed overnight in PBS to remove excess KBr.
The sub-fractions were then assayed for total cholesterol and triglyceride (TG) using enzymatic assays from Roche (Basel, Switzerland). Phospholipid (PL) and free cholesterol (FC) were measured using enzymatic assays from Wako Chemicals USA (Richmond, Va.). Protein (Pro) concentration was measured by Fisher Scientific's BCA assay (Pittsburgh, Pa.). Cholesteryl ester (CE) was calculated as (total cholesterol−free cholesterol)×1.67 (CE is cholesterol plus a fatty acid, the 1.67 adjustment takes into account the increase in mass the fatty acid will add (Rudel L L et al, JCI 100 (1); 74-83)). The S/C ratio is the ratio of the surface components (Pro, FC, and PL) to the core components (CE and TG).
Additionally, the S/C ratio is increased, indicating a shift to a smaller HDL particle, after antisense oligonucleotide inhibition of CETP. Accordingly, in this model, inhibiting the CETP-mediated transfer of TG to HDL, and CE from HDL, leads to the formation of smaller, denser, and CE rich HDL.

Substance “ISIS 349517: 5-10-5 MOE gapmer CAGCACTTTAATGCCAGTGG (sugars from the 5' end e5 d10 e5, backbone and methylation of C not given here)” has an Alanine transaminase levels ([1]; Cholesterol chow, Week 0) of 19 IU/L, an Aspartate transaminase levels ([1]; Cholesterol chow, Week 0) of 54 IU/L and an Alanine transaminase levels ([1]; Cholesterol chow, Week 3) of 56 IU/L. The Aspartate transaminase levels ([1]; Cholesterol chow, Week 3) was 72 IU/L, the Alanine transaminase levels ([1]; Cholesterol chow, Week 6) was 76 IU/L and the Aspartate transaminase levels ([1]; Cholesterol chow, Week 6) was 113 IU/L. It also gave an Alanine transaminase levels ([1]; Normal chow, Week 0) of 17 IU/L, an Aspartate transaminase levels ([1]; Normal chow, Week 0) of 75 IU/L and an Alanine transaminase levels ([1]; Normal chow, Week 3) of 24 IU/L. The Aspartate transaminase levels ([1]; Normal chow, Week 3) was 61 IU/L, the Alanine transaminase levels ([1]; Normal chow, Week 6) was 158 IU/L and the Aspartate transaminase levels ([1]; Normal chow, Week 6) was 196 IU/L. For the same substance, the “Percent inhibition of liver CETP mRNA expression” value (CETP mRNA) was 84%, the “FC % (free cholesterol component of HDL)” value [2] was 2.1% and the “PL % (phospholipid component of HDL)” value [2] was 15.6%. The “Pro % (protein component of HDL)” value [2] was 31.3%, the “TG % (triglyceride component of HDL)” value [2] was 12.8% and the “CE % (cholesteryl ester component of HDL)” value [2] was 38.1%. The “S/C Ratio” value [2] was 0.96.

“ISIS 349511: 5-10-5 MOE gapmer CCCGACCTCCTTGGAGACTT (sugars from the 5' end e5 d10 e5, backbone and methylation of C not given here)” showed an Alanine transaminase levels ([1]; Cholesterol chow, Week 0) of 28 IU/L, an Aspartate transaminase levels ([1]; Cholesterol chow, Week 0) of 49 IU/L and an Alanine transaminase levels ([1]; Cholesterol chow, Week 3) of 28 IU/L. It also gave an Aspartate transaminase levels ([1]; Cholesterol chow, Week 3) of 44 IU/L, an Alanine transaminase levels ([1]; Cholesterol chow, Week 6) of 66 IU/L and an Aspartate transaminase levels ([1]; Cholesterol chow, Week 6) of 123 IU/L. It also gave an Alanine transaminase levels ([1]; Normal chow, Week 0) of 16 IU/L, an Aspartate transaminase levels ([1]; Normal chow, Week 0) of 89 IU/L and an Alanine transaminase levels ([1]; Normal chow, Week 3) of 22 IU/L. For the same substance, the Aspartate transaminase levels ([1]; Normal chow, Week 3) was 47 IU/L, the Alanine transaminase levels ([1]; Normal chow, Week 6) was 22 IU/L and the Aspartate transaminase levels ([1]; Normal chow, Week 6) was 81 IU/L.

With “ISIS 141923: CCTTCCCTGAAGGTTCCTCC, 5-10-5 MOE gapmer, a control oligonucleotide which has no known murine target (sugars from the 5' end e5 d10 e5, backbone and methylation of C not given here) [reference compound]” the “FC % (free cholesterol component of HDL)” value [2] was 3.1%, the “PL % (phospholipid component of HDL)” value [2] was 8.4% and the “Pro % (protein component of HDL)” value [2] was 24.8%. For the same substance, the “TG % (triglyceride component of HDL)” value [2] was 47.1%, the “CE % (cholesteryl ester component of HDL)” value [2] was 16.6% and the “S/C Ratio” value [2] was 0.57.
